According to US11872311B2, “Metal bisphosphonate nanoparticles for anti-cancer therapy and imaging and for treating bone disorders” (The University of North Carolina at Chapel Hill, priority 2011, dated 2024):

Tests used:
Assay type in all cases: cell-based
[1] = tested on: H460 human lung carcinoma cells; experiment: Cell viability assay, trypan blue cell counts (A-Ca-Zol particles); conditions: NCI-H460, 48 hrs
Experimental: Four cell culturing plates were set-up for cell viability assays. In each well, 100,000 H460 human lung carcinoma cells were placed in each well with 3 mL of RPMI media (supplemented with 10% FBS and 2% PenStrep) and were allowed to incubate overnight for cell adhesion at 37° C. at 5% CO2.
20 μM stock solutions of zolendrate, bare particle (i.e., as synthesized A-Ca-Zol), RGD targeted particle and anisamide targeted particle were prepared so that treatment curves of 0 μM, 1 μM, 5 μM, 10 μM, 20 μM and […] were established in RPMI media. After individual treatment, the plates were placed back in the incubator for 48 hrs.
After incubation, media and treatment was removed from each well and cells were washed 2× with 1 mL of PBS. 1 mL of trypsin was added to each well and placed back in the incubator for 3 min. The cells and trypsin were then transferred to centrifuge tubes and centrifuged for 3 min and the cell pellet was then redistributed in 1 mL of media. Cell counts were taken using 20 μL of cells and 20 μL trypan blue on a hemocytometer.

[2] = tested on: human PC-3 prostate adenocarcinoma cells; experiment: Cell viability assay in PC-3 cells (A-Ca-Zol particles)
Experimental: In addition, a cell viability assay was also performed in a similar manner, but using human PC-3 prostate adenocarcinoma cells. Cell viability results for PC-3 cells treated with either zoledronate or as synthesized A-Ca-Zol nanoparticles are provided in FIG. 24. The IC50's are estimated to be 3.1, and 0.8 for zoledronate and as-synthesized A-Ca-Zol, respectively.

[3] = tested on: NCI-H460 large lung cancer cells; experiment: Cell viability, trypan blue exclusion (Mn-Zol particles); conditions: Homo sapiens, 48 h, zoledronate concentrations
Text: (§1) NCI-H460 large lung cancer cells (ATCC # HTB-177) and MCF-7 human breast cancer cells (ATCC # HTB-22) were purchased from the Tissue Culture Facility of Lineberger Comprehensive Cancer Center at the University of North Carolina at Chapel Hill. The cell line was maintained as a suspension in RPMI-1640 growth medium (Cellgro®, Mediatech, Inc., Manassas, Virginia., United States of America) supplemented with 10% fetal bovine serum (Sigma, St. Louis, Missouri., United States of America) and 2% penicillin-streptomycin (Sigma, St. Louis, Missouri, United States of America).
Confluent H460 cells were counted from the culture flask using a hematocytometer. Cells were plated in 6-well plates at a cell density of 5×10^4 cells/well in 3 mL RPMI-1640 complete growth medium. The cells were incubated at 37° C. and 5% CO2 overnight. Zoledronate, bare liposome, and particle dispersions of Mn-Zol and lipid coated Mn-Zol (20 μM) in RPMI-1640 media and additional media were added to wells, resulting in zoledronate concentrations (μM) of 0, 1.0, 2.5, 5, 10, and 20. Cells were incubated (37° C., 5% CO2) with free zoledronate, liposome, or particle for 48 h. Viability was determined by the trypan blue exclusion assay.

[4] = tested on: MCF-7 human breast cancer cells; experiment: Cell viability, trypan blue exclusion (A-Mn-Zol particles); conditions: MCF7, MCF-7 cells, 48 h, zoledronate concentrations
Text: as §1
Confluent MCF-7 cells were trypsinized (trypsin-EDTA, Sigma, St. Louis, Missouri, United States of America) and cell density was obtained from a hemocytometer. 6-well plates were seeded with 5.0×10^4 cells/well and a total of 3 mL media. The plates were incubated at 37° C. and 5% CO2 overnight. Amounts of zoledronate, liposomes, and particle dispersions in RPMI-1640 medium and additional media (5% phosphate buffered saline, Cellgro®, Mediatech, Inc., Manassas, Virginia., United States of America) were added to wells resulting in zoledronate concentrations of 0, 2.5, 5, 10, 20, and 40 μM. The plates were incubated at 37° C. and 5% CO2 for 48 h and viability was determined via the trypan blue exclusion assay. […]

ASPC-1 = experiment: Cytotoxicity assay against ASPC-1 (FIG. 35A); conditions: Homo sapiens, ASPC1
Text: (§2) FIGS. 35A and 35B present data from cytotoxicity assays of Mn-Zol@DOPA, PEG-A-Zn-Zol, and AA-PEG-A-Mn-Zol particles against ASPC-1 (FIG. 35A) and MCF-7 cells (FIG. 35B).

MCF-7 cells = experiment: Cytotoxicity assay against MCF-7 cells (FIG. 35B); conditions: Homo sapiens, MCF7
Text: as §2

[5] = tested on: NCI-H460 large lung cancer cells; experiment: Cancer cell growth inhibition assay, trypan blue exclusion (Ca-Pam particles); conditions: Homo sapiens, 48 h, pamidronate concentrations
Text: as §1, with “(American Type Culture Collection (ATCC)#” for “(ATCC #”, “HTB-177)” for “HTB-177) and MCF-7 human breast cancer cells (ATCC # HTB-22)”, “Missouri.,” for “Missouri,”
Confluent H460 cells were counted from the culture flask using a hematocytometer. Cells were plated in 6-well plates at a cell density of 5×10^4 cells/well in 3 mL RPMI-1640 complete growth medium. The cells were incubated at 37° C. and 5% CO2 overnight. Pamidronate, and particle dispersions of Ca-Pam, lipid coated Ca-Pam, and AA-lipid coated Ca-Pam (80 μM) in RPMI-1640 media and additional media were added to wells, resulting in pamidronate concentrations (μM) of 0, 5, 10, 20, 40, and 80. Cells were incubated (37° C., 5% CO2) with free pamidronate or particle for 48 h. Viability was determined by the trypan blue exclusion assay.

| SMILES | IC50 [1] [µM] | IC50 [2] [µM] | IC50 [3] [µM] | IC50 [4] [µM] | IC50 (ASPC-1) [µM] | IC50 (MCF-7 cells) [µM] | IC50 [5] [µM] |
| --- | --- | --- | --- | --- | --- | --- | --- |
| O=P(O)(O)C(O)(Cn1ccnc1)P(=O)(O)O [zoledronate] | > 20 | 3.1 | > 20 | 9 | > 60 | > 60 |  |
| NCCC(O)(P(=O)(O)O)P(=O)(O)O [pamidronate] |  |  |  |  |  |  | 65 |
